Reference: patent US20110269799A1 (priority 2008, published 2011)
Like-named read-outs stand apart in the source and are kept apart here.

Key:
[1] = system: patients with atrial fibrillation at risk of stroke; conditions: warfarin INR 2.0-3.0
Description: Median follow-up was 2.0 years and the primary outcome was stroke or systemic embolism.
Patients were recruited from 951 clinical centers in 44 countries. In brief, patients were eligible if they had atrial fibrillation documented on electrocardiogram at screening or within 6 months; and at least one of the following: prior stroke or transient ischemic attack; left ventricular ejection fraction less than 40%; New York Heart Association heart failure symptoms of Class 2 or greater within 6 months; age at least 75 years; or age at least 65 years with diabetes mellitus, hypertension or coronary artery disease.
The time in therapeutic range was calculated by the method of Rosendaal (Rosendaal F R, et al., A method to determine the optimal intensity of oral anticoagulant therapy, Thromb Haemost, 1993, 69:236-239), excluding INRs from the first week and after discontinuations. […] Concomitant use of aspirin (less than 100 mg/day) or other antiplatelet agents was allowed.
Liver function testing was performed monthly during the first year of follow-up.
The primary study outcome was stroke or systemic embolism. The primary safety outcome was major hemorrhage. Secondary outcomes were stroke, systemic embolism and death. Other outcomes were myocardial infarction, pulmonary embolism, transient ischemic attacks, and hospitalizations. The primary net benefit-risk outcome was the composite of stroke, systemic embolism, pulmonary embolism, myocardial infarction, death or major hemorrhage. Stroke was defined as sudden onset of focal neurological deficit consistent with the territory of a major cerebral artery and categorized as ischemic, hemorrhagic or unspecified. Hemorrhagic transformation of ischemic stroke was not considered as hemorrhagic stroke. Intracranial hemorrhage included hemorrhagic stroke and sub-dural or sub-arachnoid hemorrhage. Systemic embolism was an acute vascular occlusion of an extremity or organ documented by imaging, surgery or autopsy. Major bleeding was defined as a reduction in hemoglobin level of at least […] or transfusion of at least 2 units of blood or symptomatic bleeding in a critical area or organ. Life-threatening bleeding was a subset of major bleeding that included fatal bleeding, symptomatic intracranial bleeding, bleeding with hemoglobin decrease of more than […] or requiring transfusion of more than 4 units of blood or requiring inotropic agents or necessitating surgery. All other bleeding was considered minor.
All primary and secondary outcome events were blindly and doubly adjudicated. An international team of adjudicators reviewed documents in local languages after blinding; or documents were translated by a independent group and blinded centrally. All transient ischemic attacks were reviewed to ensure that strokes had not been missed. To detect possible unreported events, symptom questionnaires were regularly administered to patients, and adverse events and hospitalization reports were scrutinized for unreported primary or secondary outcomes.
If maximum of the two p-values was greater than 0.025, the minimum of the two p-values must be less than 0.0125, one-sided, to claim statistical significance. All analyses were based on intention-to-treat.

AF patients [2] = conditions: SPORTIF III, cited from earlier work
AF patients [3] = conditions: ACTIVE W; cited from earlier work
[4] = system: patients who have nonvalvular atrial fibrillation; conditions: meta-analysis; cited from earlier work
AF patients [5] = conditions: SPORTIF V, cited from earlier work

## CC(=O)CC(c1ccccc1)c1c(O)c2ccccc2oc1=O (racemic) [Warfarin, 3-(α-acetonylbenzyl)-4-hydroxycoumarin]
[1]
  ALT or AST > 3xULN: (2.1) %
  ALT or AST > 3xULN with concurrent bilirubin > 2xULN: (0.4) %
  Adverse Event: Arthralgia: (5.5) %
  Adverse Event: Atrial fibrillation: (5.4) %
  Adverse Event: Back pain: (5.5) %
  Adverse Event: Chest pain: (5.7) %
  Adverse Event: Cough: (5.8) %
  Adverse Event: Diarrhea: (5.5) %
  Adverse Event: Dizziness: (9.3) %
  Adverse Event: Dyspepsia: (1.4) %
  Adverse Event: Dyspnoea: (9.2) %
  Adverse Event: Fatigue: (5.9) %
  Adverse Event: Nasopharyngitis: (5.5) %
  Adverse Event: Peripheral edema: (7.6) %
  Adverse Event: Upper respiratory tract infection: (5.0) %
  Adverse Event: Urinary tract infection: (5.3) %
  Major Bleeding, Life threatening, Rate: 1.80 /100 Person Years
  Major Bleeding, Other Major, Rate: 1.80 /100 Person Years
  Pulmonary embolism, Rate: 0.09 /100 Person Years
  Rate of discontinuation at 2.5 years: 19%
  Rate of hemorrhagic stroke: 0.38 % per year
  Rate of myocardial infarction: 0.54 % per year
  Rate of primary outcome, stroke or systemic embolism: 1.70 % per year
  Reason for discontinuation: Gastrointestinal bleeding: (0.9) %
  Reason for discontinuation: Gastrointestinal disorders (including pain, vomiting and diarrhea): (0.8) %
  Reason for discontinuation: Outcome event: (2.2) %
  Reason for discontinuation: Patient decision: (6.2) %
  Reason for discontinuation: SAE: (1.6) %
  Stroke, systemic embolism, pulmonary embolism, myocardial infarction death or major bleed (net benefit), Rate: 7.99 /100 Person Years
  Study Drug Discontinuation at one year: (10) %
  Study Drug Discontinuation at two years: (19) %
  hepatobiliary disorders (AE): (2.2) %
  hepatobiliary disorders (SAE): (0.4) %
[1]; listed as warfarin
  Study Drug Discontinuation at one year: 10%
AF patients [2]
  Myocardial Infarction: 0.6% (warfarin)
AF patients [2]; ximelagatran 36 mg b.i.d.
  Stroke and systemic embolism (per 100 patient years): 2.3% (warfarin)
AF patients [3]
  Myocardial Infarction: 0.6% (warfarin)
  Stroke and systemic embolism (per 100 patient years): 1.5% (warfarin)
[4]
  Reduction of the risk of stroke compared to control: 64%
AF patients [5]
  Myocardial Infarction: 1.4% (warfarin)
AF patients [5]; ximelagatran 36 mg b.i.d.
  Stroke and systemic embolism (per 100 patient years): 1.2% (warfarin)
